Some targets named below: Cytochrome P450 2C9 (Homo sapiens, UniProt P11712); Cytochrome P450 2D6 (Homo sapiens, UniProt P10635); Cytochrome P450 3A4 (Homo sapiens, UniProt P08684).
For a further assay, the target named is Cytochrome P450 2C19 (Homo sapiens, UniProt P33261). Kind of assay: Cytochrome panel assay with activity outcomes. Panel member name: p450-cyp2c19 Compounds with AC50 equal or less than 10 uM are considered active. The format is functional. The settings on record: read-out: AC50.
Cytochrome P450 2C19, sequence (P33261 whole entry): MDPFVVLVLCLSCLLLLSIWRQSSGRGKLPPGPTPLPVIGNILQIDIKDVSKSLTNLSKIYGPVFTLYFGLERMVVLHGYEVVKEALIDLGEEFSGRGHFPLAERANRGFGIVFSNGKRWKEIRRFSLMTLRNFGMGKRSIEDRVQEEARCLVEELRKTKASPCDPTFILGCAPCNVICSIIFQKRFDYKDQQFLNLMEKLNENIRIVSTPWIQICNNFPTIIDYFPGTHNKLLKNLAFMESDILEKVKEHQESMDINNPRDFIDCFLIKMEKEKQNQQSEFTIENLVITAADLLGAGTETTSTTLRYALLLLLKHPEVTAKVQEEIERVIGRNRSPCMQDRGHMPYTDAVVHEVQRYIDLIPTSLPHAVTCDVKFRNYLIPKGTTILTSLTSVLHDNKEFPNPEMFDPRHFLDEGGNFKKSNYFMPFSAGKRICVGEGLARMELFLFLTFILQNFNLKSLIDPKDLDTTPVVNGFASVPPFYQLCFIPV
The target of the next assay is T1, Cytochrome P450 1A2 (Homo sapiens, UniProt P05177).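 Also: PubChem cytochrome P450 panel assay, CYP1A2 panel member.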
T1 sequence (P05177 whole entry): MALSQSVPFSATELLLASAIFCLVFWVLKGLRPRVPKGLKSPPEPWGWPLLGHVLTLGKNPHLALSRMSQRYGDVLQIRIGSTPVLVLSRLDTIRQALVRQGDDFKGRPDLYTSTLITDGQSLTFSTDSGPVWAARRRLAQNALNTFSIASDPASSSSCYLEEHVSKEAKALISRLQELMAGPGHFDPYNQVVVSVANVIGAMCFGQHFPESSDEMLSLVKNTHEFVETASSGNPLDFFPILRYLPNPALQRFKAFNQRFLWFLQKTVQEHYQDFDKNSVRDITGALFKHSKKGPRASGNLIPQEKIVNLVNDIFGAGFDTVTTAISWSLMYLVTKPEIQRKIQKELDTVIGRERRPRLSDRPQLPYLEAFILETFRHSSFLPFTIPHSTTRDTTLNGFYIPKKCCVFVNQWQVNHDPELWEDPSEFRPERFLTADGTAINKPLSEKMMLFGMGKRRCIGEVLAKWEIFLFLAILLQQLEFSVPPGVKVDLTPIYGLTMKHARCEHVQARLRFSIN

The nature of assay [1]: Shn3 3'UTR reporter inhibitors, dose response, cell-based, Clone20 osteoblasts, firefly luciferase, cherry-picked (AID 624132).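 Also: firefly luciferase luminescence from reporter carrying the Shn3 3'UTR in osteoblasts.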 The format is functional.
The nature of assay [2]: HepG2 cell cytotoxicity, dose response, cytotoxicity control for Shn3 inhibitor project, CellTiter-Glo, cherry-picked (AID 624134). Type of assay: functional, cell-based. For orientation: In ATP-based viability assays light output follows the ATP content of the culture.
Assay [3] can be described thus: control 3'UTR Renilla luciferase suppression, dose response, counter-screen for Shn3 inhibitor project, cell-based, Clone20-Shn3RL, cherry-picked (AID 624133). Type of assay: functional. A general note: The purpose of a counterscreen is to sort out artefacts and off-target activity.
In the next assay the test system is P388/ADR. Put plainly: cells. Type of assay: functional. Particulars: Mus musculus.
In a further assay the test system is SN12K1. Kind of assay: cells. The format is functional. Particulars: Homo sapiens.
The subject of a further assay is P388. Kind of assay: cells. The settings on record: Mus musculus. The format is functional.
A further assay has as its target Paired box protein Pax-8 (Homo sapiens, UniProt Q06710). Kind of assay: inhibitors of PAX8-driven TPO luciferase reporter, dose response, RMG-I cells, cherry-pick (AID 687027).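 Also: luciferase reporter driven by Pax8 target thyroperoxidase promoter measured by SteadyGlo luminescence.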 Type of assay: functional, cell-based. (Reporter assays use an easily measured gene product as a stand-in for the process of interest.)

Structures are written as SMILES. Activity calls are given as the source filed them.

As usually defined, the AC50 is the midpoint of the concentration-response curve, whichever way the signal moves. In general, GI50 refers to the concentration giving 50% growth inhibition.

Cytochrome P450 3A4, sequence (P08684 whole entry): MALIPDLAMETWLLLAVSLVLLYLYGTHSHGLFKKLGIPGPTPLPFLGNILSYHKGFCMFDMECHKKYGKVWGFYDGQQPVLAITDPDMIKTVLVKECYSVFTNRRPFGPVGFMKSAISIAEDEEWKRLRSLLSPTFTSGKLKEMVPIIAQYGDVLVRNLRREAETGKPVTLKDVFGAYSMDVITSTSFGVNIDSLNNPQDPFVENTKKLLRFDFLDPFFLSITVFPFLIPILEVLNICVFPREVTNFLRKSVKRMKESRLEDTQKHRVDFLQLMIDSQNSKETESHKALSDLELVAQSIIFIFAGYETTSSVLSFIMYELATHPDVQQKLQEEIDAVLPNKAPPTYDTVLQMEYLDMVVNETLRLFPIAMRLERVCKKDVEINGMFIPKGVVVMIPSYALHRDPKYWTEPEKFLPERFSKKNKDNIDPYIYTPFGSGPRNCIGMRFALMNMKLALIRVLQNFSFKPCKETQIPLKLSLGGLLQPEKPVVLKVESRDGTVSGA
Cytochrome P450 2C9, sequence (P11712 whole entry): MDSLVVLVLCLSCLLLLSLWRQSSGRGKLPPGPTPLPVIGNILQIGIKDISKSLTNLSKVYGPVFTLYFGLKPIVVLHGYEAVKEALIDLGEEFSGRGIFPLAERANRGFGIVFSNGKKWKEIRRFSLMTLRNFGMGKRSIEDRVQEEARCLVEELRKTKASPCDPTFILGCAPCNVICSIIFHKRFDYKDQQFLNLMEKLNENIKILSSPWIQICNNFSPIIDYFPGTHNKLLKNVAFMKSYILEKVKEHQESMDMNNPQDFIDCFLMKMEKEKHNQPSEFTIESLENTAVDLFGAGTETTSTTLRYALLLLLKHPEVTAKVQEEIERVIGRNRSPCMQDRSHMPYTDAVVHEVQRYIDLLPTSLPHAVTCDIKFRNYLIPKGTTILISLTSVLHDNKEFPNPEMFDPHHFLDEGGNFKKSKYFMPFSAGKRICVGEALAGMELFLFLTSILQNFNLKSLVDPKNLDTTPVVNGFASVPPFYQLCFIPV
Cytochrome P450 2D6, sequence (P10635 whole entry): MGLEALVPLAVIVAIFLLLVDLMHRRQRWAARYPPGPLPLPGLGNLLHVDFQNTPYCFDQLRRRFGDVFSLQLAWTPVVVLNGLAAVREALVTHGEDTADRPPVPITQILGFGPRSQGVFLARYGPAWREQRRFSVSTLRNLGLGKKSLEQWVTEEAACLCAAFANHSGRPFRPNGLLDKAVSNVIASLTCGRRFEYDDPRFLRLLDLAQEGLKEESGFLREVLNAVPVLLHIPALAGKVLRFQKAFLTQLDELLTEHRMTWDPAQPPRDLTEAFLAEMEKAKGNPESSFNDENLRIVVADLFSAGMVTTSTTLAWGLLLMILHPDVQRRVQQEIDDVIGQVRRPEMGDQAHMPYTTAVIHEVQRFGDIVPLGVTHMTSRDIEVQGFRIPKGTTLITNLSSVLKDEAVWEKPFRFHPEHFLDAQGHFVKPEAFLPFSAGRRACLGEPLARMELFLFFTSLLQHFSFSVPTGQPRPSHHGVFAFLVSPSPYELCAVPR
Paired box protein Pax-8, sequence (Q06710 whole entry): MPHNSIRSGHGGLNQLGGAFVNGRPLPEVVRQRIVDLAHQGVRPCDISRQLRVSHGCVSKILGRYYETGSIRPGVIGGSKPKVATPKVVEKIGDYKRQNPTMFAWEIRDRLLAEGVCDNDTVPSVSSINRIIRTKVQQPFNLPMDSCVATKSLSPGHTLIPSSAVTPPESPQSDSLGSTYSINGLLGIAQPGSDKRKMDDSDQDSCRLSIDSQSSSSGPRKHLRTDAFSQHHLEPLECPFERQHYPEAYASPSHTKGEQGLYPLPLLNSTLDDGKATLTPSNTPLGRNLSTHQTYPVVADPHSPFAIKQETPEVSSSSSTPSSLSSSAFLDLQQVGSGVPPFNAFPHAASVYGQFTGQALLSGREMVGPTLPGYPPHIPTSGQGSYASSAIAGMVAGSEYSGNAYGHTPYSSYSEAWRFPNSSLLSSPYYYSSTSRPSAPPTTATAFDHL

As to `O=C(O)Cc1ccc2c(c1)N(S(=O)(=O)c1cccc(C(F)(F)F)c1)CC(C(=O)O)O2` (configuration not stated), the AC50 on Cytochrome P450 2C19 is 25.1 µM (inconclusive); at Cytochrome P450 2C9, 15.8 µM (inconclusive).
As for `CN(Cc1ccco1)c1cc(-c2cccc(NS(C)(=O)=O)c2)ncn1`, the half-maximal activity concentration (AC50) on Cytochrome P450 2C19 is 31.6 µM (inconclusive); on Cytochrome P450 2D6, 25.1 µM (inconclusive).
On to `N#Cc1ccccc1-c1ccc2ncnc(NC3CC3)c2c1`, for which the values for the half-maximal activity concentration (AC50) on Cytochrome P450 2C19 and on Cytochrome P450 2D6 were 7.94 µM (inconclusive) and 39.8 µM (inconclusive), respectively.
Turning to `CC(=O)c1c(O)c(C)c(O)c(Cc2c(O)c3c(c(C(=O)/C=C\c4ccccc4)c2O)OC(C)(C)C=C3)c1O`, the AC50 at Cytochrome P450 1A2 was 31.6 µM (inconclusive).
Take `CNc1cnn(-c2ccccc2)c(=O)c1Cl`: the values for the concentration at half-maximal activity (AC50) at Cytochrome P450 1A2 and on Cytochrome P450 2C9 were 28.2 µM (inconclusive) and 1 µM (inconclusive), respectively.
As for `OC(COc1ccc(OCC(O)CN2CCCCCC2)cc1)CN1CCCCCC1` (configuration not stated), the AC50 was 1.78 µM (inconclusive) on Cytochrome P450 2C19 and 15.8 µM (inconclusive) on Cytochrome P450 2D6.
Turning to `CC1=C(C(=O)Nc2ccccc2)C(c2ccco2)NC(S)=N1` (configuration not stated), the concentration at half-maximal activity (AC50) on Cytochrome P450 2C9 was 12.6 µM (inconclusive).
For the compound `COc1cccc(C2NC(c3cccc(OC)c3O)C(C)C(=O)C2C)c1O` (configuration not stated), the concentration at half-maximal activity (AC50) was 7.94 µM (inconclusive) at Cytochrome P450 2D6 and 10 µM (inconclusive) at Cytochrome P450 2C9.
With `CCN1CCc2nc(NC(=O)c3ccc4c(c3)OCCO4)sc2C1`, the AC50 was 3.16 µM (inconclusive) on Cytochrome P450 1A2 and 12.6 µM (inconclusive) at Cytochrome P450 2C9.
On the same counts, the results for `CC(C)CCN1C(=O)c2ccc(-c3nc4ccccc4c(=O)o3)cc2C1=O` are 15.8 µM (inconclusive) and 3.16 µM (inconclusive).
Take `COc1ncc2nc(CCc3ccccc3)c(=O)n(CCC#N)c2n1`: the AC50 at Cytochrome P450 2D6 was 25.1 µM (inconclusive).
`Nc1nc(SCCc2ccccc2)c2nc[nH]c2n1`: the AC50 at Cytochrome P450 2D6 and on Cytochrome P450 2C9 was 3.98 µM (inconclusive) each time.
With `c1ccc(-c2cccc(N3CC4(CCNCC4)C3)c2)cc1`, the half-maximal activity concentration (AC50) on Cytochrome P450 1A2 is 12.6 µM (inconclusive).
Regarding `COc1cccc(OCc2nnc(SCC(=O)NCc3ccco3)n2C)c1`, the AC50 is 25.1 µM (inconclusive) at Cytochrome P450 2C19 and 15.8 µM (inconclusive) on Cytochrome P450 2C9.
As to `Cc1noc(C)c1-c1ccc2ncnc(NCc3ccccc3)c2c1`, the AC50 on Cytochrome P450 2D6 was 39.8 µM (inconclusive).
On to `N#Cc1cc(-c2ccc(Cl)cc2)cnc1Sc1ccc(F)cc1`, for which the AC50 at Cytochrome P450 2C19 was 1 µM (inconclusive); at Cytochrome P450 3A4, 14.1 µM (inconclusive); on Cytochrome P450 2C9, 7.94 µM (inconclusive).
On to `COCC(=O)N1CCC[C@@]2(CCN(C(c3ccccc3)c3ccccc3)C2)C1`, for which the AC50 on Cytochrome P450 1A2 is 12.6 µM (inconclusive); on Cytochrome P450 3A4 it was 10 µM (inconclusive).
Consider `O=S(=O)(c1ccccc1)N1CCC2(CCN(Cc3nccs3)CC2)CC1`, for which the AC50 on Cytochrome P450 2D6 is 25.1 µM (inconclusive).
Turning to `CCOC(=O)CN(c1ccccn1)S(=O)(=O)c1ccccc1`, the figures for the AC50 at Cytochrome P450 2C19 and on Cytochrome P450 2C9 were 31.6 µM (inconclusive) and 3.55 µM (inconclusive), respectively.
Take `CCOC(=O)CC(Nc1nc(N2CCOCC2)nc(N2CCOCC2)n1)c1ccccc1Cl` (configuration not stated): the half-maximal activity concentration (AC50) on Cytochrome P450 1A2 was 10 µM (inconclusive); on Cytochrome P450 3A4 it was 25.1 µM (inconclusive).
`Cc1ccc(C(c2ccc(C)o2)c2cccc([N+](=O)[O-])c2O)o1`: the concentration at half-maximal activity (AC50) is 14.1 µM (inconclusive) at Cytochrome P450 2D6 and 28.2 µM (inconclusive) on Cytochrome P450 3A4.
Turning to `CCC(C)(C)n1nnnc1C(C(C)C)N(CCCO)Cc1cc2cc(C)ccc2nc1O` (configuration not stated), the concentration at half-maximal activity (AC50) is 25.1 µM (inconclusive) on Cytochrome P450 2C19 and 15.8 µM (inconclusive) on Cytochrome P450 1A2.
With `O=C(c1cc(-c2ccc(Cl)cc2Cl)on1)N1CCN(C(=O)c2ccco2)CC1`, the AC50 on Cytochrome P450 2D6 was 20 µM (inconclusive).
On to `CCCC[C@H](CC)CNC(=N)NC(=N)NCCCCCCNC(=N)NC(=N)NC[C@@H](CC)CCCC`, for which the half-maximal activity concentration (AC50) is 3.98 µM (inconclusive) at Cytochrome P450 2C19, 15.8 µM (inconclusive) on Cytochrome P450 1A2 and 20 µM (inconclusive) at Cytochrome P450 2C9.
With `COc1cc(NC(=O)COC(=O)c2nc3nc(C)cc(C)n3n2)cc(OC)c1`, the AC50 at Cytochrome P450 2D6 is 15.8 µM (inconclusive); on Cytochrome P450 2C9 it was 28.2 µM (inconclusive).
Turning to `CCOC(=O)CSC1=C(C#N)C(C)C2=C(O)CCCC2=N1` (configuration not stated), the AC50 on Cytochrome P450 2C9 was 22.4 µM (inconclusive).
Turning to `CCN1CCN(Cc2ccc(NC(=O)c3cc(NC(=O)c4cncc(-c5cccs5)c4)cc(OC)c3)cc2C(F)(F)F)CC1`, the values for the half-maximal activity concentration (AC50) in assay [1], in [2] and in assay [3] were 9.68 µM (active), > 70 µM (inactive) and 27.3 µM (active), respectively.
On to `COC1=C(C)C(=O)C2=C(C1=O)C(CO)N1C(C#N)C3CC4C(C1C2N1CCOC41)N3C` (configuration not stated), for which the results for the GI50 in the assay with P388/ADR, in the assay with SN12K1 and in the assay on P388 were 0.01 µM (active), 0.294 µM (active) and < 0.01 µM (active), respectively. For the same compound, the AC50 at Paired box protein Pax-8 is < 0.26 µM (active).
For `CCOC(=O)CC1NC(=O)c2ccccc21` (configuration not stated), the AC50 at Cytochrome P450 1A2 is 28.2 µM (inconclusive).
Consider `NC(Cc1ccc(Cl)cc1)c1csc(NC(=O)NCC2CCCCC2)n1` (configuration not stated), for which the concentration at half-maximal activity (AC50) in assay [1] was 6.58 µM (active); in [2], 11.1 µM (active); in assay [3] it was 9.27 µM (active).
Consider `COc1cccc2c1C(=O)c1c(O)c3c(c(O)c1C2=O)C[C@@](O)(C(=O)CO)C[C@@H]3OC1CC(N2CCOCC2)C(O)C(C)O1` (some centres not stated), for which the 50% growth inhibitory concentration (GI50) with P388/ADR is 0.00136 µM (active); in the assay with SN12K1 it was 0.00366 µM (active); with P388 it was 0.0025 µM (active).
In the same order, the values of `CC(=O)OC1CC2(O)C(CCC3(C)C(c4ccc(=O)oc4)CCC32O)C2(C)C1=CC(O)C1OC12` (configuration not stated) are 79.1 µM (inactive), 0.0424 µM (active) and 46.1 µM (inactive).
For the compound `C=C1C(=O)O[C@H]2[C@H]1[C@@H](OC(=O)C=C(C)C)CC1=C[C@@H](C[C@@]3(C)O[C@@H]23)OC1=O`, the values for the GI50 with SN12K1 and in the assay on P388 were 6.46 µM (inactive) and 0.139 µM (active), respectively.
Regarding `CN(C)CCNC(=O)c1cc(Cl)cc2ccc(-c3ccccc3)nc12`, the GI50 with P388/ADR was 1.47 µM (inactive); with SN12K1 it was 1.77 µM (inactive); in the assay on P388 it was 0.476 µM (active).
In the same order, the values of `O=P1(c2ccccc2)Nc2ccccc2SSc2ccccc2N1` are 7.45 µM (inactive), 15.3 µM (inactive) and 0.839 µM (active).
On the same counts, the results for `C=CCC(O[Si](C)(C)C(C)(C)C)c1cc(O[Si](C)(C)C(C)(C)C)ccc1OC` (configuration not stated) are > 100 µM (inactive), > 100 µM (inactive) and 22.2 µM (inactive).
In the case of `C=CCc1cccc(/C=N\N/C(N)=N/O)c1O`, the GI50 was 0.78 µM (active) with P388/ADR, 2.01 µM (inactive) in the assay on SN12K1 and 1.19 µM (inactive) in the assay with P388.
In the same order, the values of `Oc1c(CNCCCN2CCCC2)cc(Cl)c2cccnc12` are 1.1 µM (active), 0.942 µM (active) and 1.69 µM (inactive).
On the same counts, the results for `COc1cc(CCCOC2OC(COC3OCC(O)C(O)C3O)C(O)C(O)C2O)cc2cc(-c3ccc4c(c3)OCO4)oc12` (configuration not stated) are > 175 µM (inactive), > 175 µM (inactive) and > 175 µM (inactive).
On to `Cc1ccc2cc3cccc(C(=O)NCCN(C)C)c3nc2c1`, for which the GI50 with P388/ADR is 0.252 µM (active); in the assay on SN12K1, 0.426 µM (active); in the assay on P388 it was 0.257 µM (active).
In the same order, the values of `C[C@@H]1[C@@H]2[C@@H](C=C3C4CCC5Cc6nc7c(nc6C[C@@]5(C)C4C[C@H](O)[C@]32CO)CC2CCC3C4=C[C@H]5O[C@@]6(OC(C)(CO)C[C@@H]6O)[C@H](C)[C@@]5(O)[C@]4(C)[C@@H](O)CC3[C@]2(C)C7)O[C@]12CCC(C)(C)O2` (some centres not stated) are 0.0918 µM (active), 0.000365 µM (active) and 0.000365 µM (active).
As to `COc1ccc(N[C@@H]2c3cc4c(cc3C(c3cc(OC)c(O)c(OC)c3)[C@H]3C(=O)OCC32)OCO4)cc1OC` (some centres not stated), the GI50 with P388/ADR was 0.269 µM (active); in the assay with P388, < 0.01 µM (active).
For the compound `CNC(=O)OCc1nc(SC2CCCCO2)n(C)c1COC(=O)NC` (configuration not stated), the GI50 in the assay with P388/ADR, in the assay with SN12K1 and in the assay on P388 was > 100 µM (inactive) each time.
With `O=NN(CCCl)C(=O)NC1CCCCC1` [LOMUSTINE], the results for the GI50 with P388/ADR, in the assay on SN12K1 and with P388 were 4.56 µM (inactive), 32.6 µM (inactive) and 4.23 µM (inactive), respectively.

For the origin of these results see ChEMBL document CHEMBL1201862, “PubChem BioAssay data set” (2004).
